Assay results from ChEMBL document CHEMBL4002566, “S-substituted 3,5-dinitrophenyl 1,3,4-oxadiazole-2-thiols and tetrazole-5-thiols as highly efficient antitubercular agents” (Eur J Med Chem, 2017).
In brackets after ≈: the same amount, converted by molar mass.

Legend:
[1] = system: Mycobacterium tuberculosis; experiment: Antimycobacterial activity against Mycobacterium tuberculosis H37Rv after 7 days by resazurin reduction microplate assay; assay type: functional; details: 168 h
[2] = system: Escherichia coli; experiment: Antibacterial activity against Escherichia coli ATCC 8739 after 24 hrs by broth microdilution method; assay type: functional; details: ATCC 8739, 24 h
[3] = system: Pseudomonas aeruginosa; experiment: Antibacterial activity against Pseudomonas aeruginosa ATCC 9027 after 48 hrs by broth microdilution method; assay type: functional; details: ATCC 9027, 48 h
[4] = system: Pichia kudriavzevii; experiment: Antifungal activity against Candida krusei E28 after 48 hrs by broth microdilution method; assay type: functional; details: E28, 48 h
[5] = system: Trichosporon asahii; experiment: Antifungal activity against Trichosporon asahii 1188 after 48 hrs by broth microdilution method; assay type: functional; details: Trichosporon asahii, 1188, 48 h
[6] = system: Klebsiella pneumoniae; experiment: Antibacterial activity against Klebsiella pneumoniae HK11750/08 after 24 hrs by broth microdilution method; assay type: functional; details: HK11750/08, 24 h
[7] = system: Pichia kudriavzevii; experiment: Antifungal activity against Candida krusei E28 after 24 hrs by broth microdilution method; assay type: functional; details: E28, 24 h
[8] = system: Klebsiella pneumoniae; experiment: Antibacterial activity against Klebsiella pneumoniae HK11750/08 after 48 hrs by broth microdilution method; assay type: functional; details: HK11750/08, 48 h
[9] = system: Trichophyton mentagrophytes; experiment: Antifungal activity against Trichophyton mentagrophytes 445 after 120 hrs by broth microdilution method; assay type: functional; details: Trichophyton mentagrophytes, 445, 120 h
[10] = system: Mycobacterium tuberculosis; experiment: Antimycobacterial activity against Mycobacterium tuberculosis CNCTC My 331/88 after 21 days by micromethod; assay type: functional; details: CNCTC My 331/88, 504 h
[11] = system: Mycobacterium kansasii; experiment: Antimycobacterial activity against Mycobacterium kansasii 6509/96 clinical isolate after 14 days by micromethod; assay type: functional; details: 6509/96, 336 h
[12] = system: Mycobacterium avium; experiment: Antimycobacterial activity against Mycobacterium avium CNCTC My 330/88 after 21 days by micromethod; assay type: functional; details: CNCTC My 330/88, 504 h
[13] = system: Enterococcus sp.; experiment: Antibacterial activity against Enterococcus sp. HK14365/08 after 24 hrs by broth microdilution method; assay type: functional; details: HK14365/08, 24 h
[14] = system: Staphylococcus aureus; experiment: Antibacterial activity against Staphylococcus aureus ATCC 6538 after 24 hrs by broth microdilution method; assay type: functional; details: ATCC 6538, 24 h
[15] = system: Klebsiella pneumoniae; experiment: Antibacterial activity against extended spectrum beta-lactamase producing Klebsiella pneumoniae HK14368/08 after 24 hrs by broth microdilution method; assay type: functional; details: HK14368/08, 24 h
[16] = system: Candida tropicalis; experiment: Antifungal activity against Candida tropicalis 156 after 24 hrs by broth microdilution method; assay type: functional; details: Candida tropicalis, 156, 24 h
[17] = system: Mycobacterium avium; experiment: Antimycobacterial activity against Mycobacterium avium CNCTC My 330/88 after 14 days by micromethod; assay type: functional; details: CNCTC My 330/88, 336 h
[18] = system: Trichosporon asahii; experiment: Antifungal activity against Trichosporon asahii 1188 after 24 hrs by broth microdilution method; assay type: functional; details: Trichosporon asahii, 1188, 24 h
[19] = system: A-431; experiment: Cytotoxicity against human A431 cells assessed as cell viability after 48 hrs by MTS assay; assay type: cell-based; details: A-431, 48 h
[20] = system: Aspergillus fumigatus; experiment: Antifungal activity against Aspergillus fumigatus 231 after 24 hrs by broth microdilution method; assay type: functional; details: Aspergillus fumigatus, 231, 24 h
[21] = Cytotoxicity against MDCK cells assessed as cell viability at 30 uM after 48 hrs by MTS assay relative to control; assay type: cell-based, Canis lupus familiaris; details: dog, read-out: Activity
[22] = system: Staphylococcus epidermidis; experiment: Antibacterial activity against Staphylococcus epidermidis HK6996/08 after 48 hrs by broth microdilution method; assay type: functional; details: HK6996/08, 48 h
[23] = system: Staphylococcus aureus; experiment: Antibacterial activity against methicillin-resistant Staphylococcus aureus HK5996/08 after 24 hrs by broth microdilution method; assay type: functional; details: HK5996/08, 24 h
[24] = Cytotoxicity against human HepG2 cells assessed as cell viability at 30 uM after 48 hrs by MTS assay relative to control; assay type: cell-based; details: read-out: Activity
[25] = system: Nakaseomyces glabratus; experiment: Antifungal activity against Candida glabrata 20/I after 48 hrs by broth microdilution method; assay type: functional
[26] = system: Aspergillus fumigatus; experiment: Antifungal activity against Aspergillus fumigatus 231 after 48 hrs by broth microdilution method; assay type: functional; details: Aspergillus fumigatus, 231, 48 h
[27] = system: MDCK; experiment: Cytotoxicity against MDCK cells assessed as cell viability after 48 hrs by MTS assay; assay type: cell-based; details: Canis lupus familiaris
[28] = system: Klebsiella pneumoniae; experiment: Antibacterial activity against extended spectrum beta-lactamase producing Klebsiella pneumoniae HK14368/08 after 48 hrs by broth microdilution method; assay type: functional; details: HK14368/08, 48 h
[29] = system: Staphylococcus aureus; experiment: Antibacterial activity against Staphylococcus aureus ATCC 6538 after 48 hrs by broth microdilution method; assay type: functional; details: ATCC 6538, 48 h
[30] = system: Staphylococcus aureus; experiment: Antibacterial activity against methicillin-resistant Staphylococcus aureus HK5996/08 after 48 hrs by broth microdilution method; assay type: functional; details: HK5996/08, 48 h
[31] = system: Candida tropicalis; experiment: Antifungal activity against Candida tropicalis 156 after 48 hrs by broth microdilution method; assay type: functional; details: Candida tropicalis, 156, 48 h
[32] = system: Huh-7; experiment: Cytotoxicity against human HuH7 cells assessed as cell viability after 48 hrs by MTS assay; assay type: cell-based; details: Huh-7, 48 h
[33] = system: Pseudomonas aeruginosa; experiment: Antibacterial activity against Pseudomonas aeruginosa ATCC 9027 after 24 hrs by broth microdilution method; assay type: functional; details: ATCC 9027, 24 h
[34] = system: Lichtheimia corymbifera; experiment: Antifungal activity against Absidia corymbifera 272 after 24 hrs by broth microdilution method; assay type: functional; details: Lichtheimia corymbifera, 272, 24 h
[35] = system: Nakaseomyces glabratus; experiment: Antifungal activity against Candida glabrata 20/I after 24 hrs by broth microdilution method; assay type: functional
[36] = Selectivity index, ratio of IC50 for human HepG2 cells to MIC for Mycobacterium tuberculosis; assay type: toxicity; details: read-out: Selectivity Index
[37] = system: Mycobacterium kansasii; experiment: Antimycobacterial activity against Mycobacterium kansasii 6509/96 clinical isolate after 7 days by micromethod; assay type: functional; details: 6509/96, 168 h
[38] = system: Mycobacterium kansasii; experiment: Antimycobacterial activity against Mycobacterium kansasii 6509/96 clinical isolate after 21 days by micromethod; assay type: functional; details: 6509/96, 504 h
[39] = Cytotoxicity against human HuH7 cells assessed as cell viability at 30 uM after 48 hrs by MTS assay relative to control; assay type: cell-based, Huh-7; details: read-out: Activity
[40] = system: Mycobacterium kansasii; experiment: Antimycobacterial activity against Mycobacterium kansasii CNCTC My 235/80 after 21 days by micromethod; assay type: functional; details: CNCTC My 235/80, 504 h
[41] = system: Staphylococcus epidermidis; experiment: Antibacterial activity against Staphylococcus epidermidis HK6996/08 after 24 hrs by broth microdilution method; assay type: functional; details: HK6996/08, 24 h
[42] = system: HepG2; experiment: Cytotoxicity against human HepG2 cells assessed as cell viability after 48 hrs by MTS assay; assay type: cell-based; details: HepG2, 48 h
[43] = system: Enterococcus sp.; experiment: Antibacterial activity against Enterococcus sp. HK14365/08 after 48 hrs by broth microdilution method; assay type: functional; details: HK14365/08, 48 h
[44] = system: Trichophyton mentagrophytes; experiment: Antifungal activity against Trichophyton mentagrophytes 445 after 72 hrs by broth microdilution method; assay type: functional; details: Trichophyton mentagrophytes, 445, 72 h
[45] = system: Mycobacterium tuberculosis; experiment: Antimycobacterial activity against Mycobacterium tuberculosis CNCTC My 331/88 after 14 days by micromethod; assay type: functional; details: CNCTC My 331/88, 336 h
[46] = system: Mycobacterium kansasii; experiment: Antimycobacterial activity against Mycobacterium kansasii CNCTC My 235/80 after 7 days by micromethod; assay type: functional; details: CNCTC My 235/80, 168 h
[47] = system: Candida albicans; experiment: Antifungal activity against Candida albicans ATCC 44859 after 48 hrs by broth microdilution method; assay type: functional; details: ATCC 44859, 48 h
[48] = system: Lichtheimia corymbifera; experiment: Antifungal activity against Absidia corymbifera 272 after 48 hrs by broth microdilution method; assay type: functional; details: Lichtheimia corymbifera, 272, 48 h
[49] = Cytotoxicity against human A431 cells assessed as cell viability at 30 uM after 48 hrs by MTS assay relative to control; assay type: cell-based, A-431; details: read-out: Activity
[50] = system: Mycobacterium kansasii; experiment: Antimycobacterial activity against Mycobacterium kansasii CNCTC My 235/80 after 14 days by micromethod; assay type: functional; details: CNCTC My 235/80, 336 h
[51] = system: Candida albicans; experiment: Antifungal activity against Candida albicans ATCC 44859 after 24 hrs by broth microdilution method; assay type: functional; details: ATCC 44859, 24 h
[52] = system: Escherichia coli; experiment: Antibacterial activity against Escherichia coli ATCC 8739 after 48 hrs by broth microdilution method; assay type: functional; details: ATCC 8739, 48 h

Cc1nc2cc(Br)cc([N+](=O)[O-])c2nc1-c1ccccc1
MIC [1]: 3.1 µM (≈ 1.07 µg/mL)

O=[N+]([O-])c1cc(-c2nnc(SCc3ccc(Br)cc3)o2)cc([N+](=O)[O-])c1
MIC [2]: > 125 µM | MIC [3]: > 125 µM | MIC [4]: > 125 µM | MIC [5]: > 125 µM | MIC [6]: > 125 µM | MIC [7]: > 125 µM | MIC [8]: > 125 µM | MIC [9]: > 125 µM | MIC [10]: 0.06 µM (≈ 0.0262 µg/mL) | MIC [11]: 0.03 µM (≈ 0.0131 µg/mL) | MIC [12]: 125 µM (≈ 54.7 µg/mL) | MIC [13]: > 125 µM | MIC [14]: > 125 µM | MIC [15]: > 125 µM | MIC [16]: > 125 µM | MIC [17]: 125 µM (≈ 54.7 µg/mL) | MIC [18]: > 125 µM | IC50 [19]: > 30 µM | MIC [20]: > 125 µM | viability at 48 h, 30 µM [21]: 114% | MIC [22]: > 125 µM | MIC [23]: > 125 µM | viability at 48 h, 30 µM [24]: 113% | MIC [25]: > 125 µM | MIC [26]: > 125 µM | IC50 [27]: > 30 µM | MIC [28]: > 125 µM | MIC [29]: > 125 µM | MIC [30]: > 125 µM | MIC [31]: > 125 µM | IC50 [32]: > 30 µM | MIC [33]: > 125 µM | MIC [34]: > 125 µM | MIC [35]: > 125 µM | selectivity ratio [36]: > 1000 | MIC [37]: 0.03 µM (≈ 0.0131 µg/mL) | MIC [38]: 0.06 µM (≈ 0.0262 µg/mL) | viability at 48 h, 30 µM [39]: 143% | MIC [40]: 0.06 µM (≈ 0.0262 µg/mL) | MIC [41]: > 125 µM | IC50 [42]: > 30 µM | MIC [43]: > 125 µM | MIC [44]: > 125 µM | MIC [45]: 0.03 µM (≈ 0.0131 µg/mL) | MIC [46]: 0.03 µM (≈ 0.0131 µg/mL) | MIC [47]: > 125 µM | MIC [48]: > 125 µM | viability at 48 h, 30 µM [49]: 99% | MIC [50]: 0.03 µM (≈ 0.0131 µg/mL) | MIC [51]: > 125 µM | MIC [52]: > 125 µM
